Calls of active or inactive are those of the source. The rule behind the calls is not given here.
Key:
[1] = target: Actin, alpha skeletal muscle (Oryctolagus cuniculus, UniProt P68135); assay: Induction of rabbit skeletal muscle actin depolymerization measured after 120 mins by fluorescence assay
Homo sapiens [2] = species on record: Homo sapiens; assay: Inhibition of aplyronine A-actin complex-tubulin (unknown origin) protein-protein interaction at 1 equivalent by SPR analysis
HeLa S3 = assay: Cytotoxicity against human HeLa S3 cells assessed as reduction in cell viability measured after 96 hrs by MTT assay; type: functional, cell-based; conditions: HeLa S3, 96 h
Homo sapiens [3] = species on record: Homo sapiens; assay: Binding affinity to streptavidin immobilized actin (unknown origin) assessed as on rate constant by SPR analysis
[4] = Binding affinity to streptavidin immobilized actin (unknown origin) assessed as off rate constant by SPR analysis; parameters: species or system Homo sapiens
[5] = Binding affinity to streptavidin immobilized actin (unknown origin) assessed as dissociation constant by SPR analysis; parameters: species or system Homo sapiens
Homo sapiens [6] = species on record: Homo sapiens; assay: Induction of immobilized actin-tubulin (unknown origin) protein-protein interaction by SPR analysis
Homo sapiens [7] = species on record: Homo sapiens; assay: Induction of microtubule (unknown origin) depolymerization pretreated with paclitaxel followed by compound treatment measured after 1 hr in presence of native and biotinylated tubulin and actin by ultracentrifugation
Homo sapiens [8] = species on record: Homo sapiens; assay: Binding affinity to actin (unknown origin) assessed as 1:1:1 ratio of actin-compound-tubulin heterodimer complex formation by measuring peak time in presence of 9:1 ratio of native/biotinylated tubulin by gel permeation HPLC analysis
Homo sapiens [9] = species on record: Homo sapiens; assay: Binding affinity to actin (unknown origin) assessed as 1:1:1 ratio of actin-compound-tubulin heterodimer complex formation by measuring molecular weight in presence of 9:1 ratio of native/biotinylated tubulin by gel permeation HPLC analysis
Homo sapiens [10] = species on record: Homo sapiens; assay: Binding affinity to actin (unknown origin) assessed as on rate constant for actin-compound-tubulin heterodimer complex
[11] = Binding affinity to actin (unknown origin) assessed as off rate constant for actin-compound-tubulin heterodimer complex; parameters: species or system Homo sapiens
[12] = Binding affinity to actin (unknown origin) assessed as dissociation constant for actin-compound-tubulin heterodimer complex at 25 degreeC; parameters: species or system Homo sapiens
Homo sapiens [13] = species on record: Homo sapiens; assay: Binding affinity to actin (unknown origin) assessed as dissociation constant for actin-compound-tubulin heterodimer complex at 8 degreeC
Homo sapiens [14] = species on record: Homo sapiens; assay: Binding affinity to actin (unknown origin) assessed as thermal stability of actin-compound-tubulin heterodimer complex at 25 degreeC
Homo sapiens [15] = species on record: Homo sapiens; assay: Binding affinity to actin (unknown origin) assessed as thermal stability of actin-compound-immobilized tubulin heterodimer complex
Homo sapiens [16] = species on record: Homo sapiens; assay: Induction of aplyronine A-actin complex-tubulin (unknown origin) protein-protein interaction assessed as association of actin-aplyronine A-tubulin complex by SPR analysis
Homo sapiens [17] = species on record: Homo sapiens; assay: Induction of aplyronine A-actin complex-tubulin (unknown origin) protein-protein interaction assessed as actin-aplyronine A-tubulin ternary complex formation by SPR analysis

Row | Ka (Homo sapiens [3]) | Kd [4] | Kd [5] [nM] | Structure (SMILES) | Kd [1] [nM] | inhibition (Homo sapiens [2]) [%] | IC50 (HeLa S3) [nM] | also measured
1 | – | – | – | COC[C@@H](OC)C(=O)O[C@H](CC[C@H](C)[C@H](C[C@@H]1OC(=O)C[C@@H](O)C/C=C/C(=O)[C@H](C)[C@H](OC)c2coc(n2)-c2coc(n2)-c2coc(n2)/C=C/C[C@H](OC)[C@H]1C)OC)[C@H](C)[C@H](OC(C)=O)[C@H](C)/C=C/N(C)C=O | 13 | 100 | – | –
2 | – | – | – | CO[C@H]1CC[C@@H](C)[C@@H](O)[C@H](C)[C@H](O)C/C=C/C=C/C(=O)O[C@H]([C@@H](C)[C@@H](O)[C@@H](C)CC[C@@H](OC(=O)C(C)N(C)C)[C@H](C)[C@H](OC(C)=O)[C@H](C)/C=C/N(C)C=O)C/C=C/[C@H](OC)C[C@H](C)C/C=C/1C (some centres not stated) [APLYRONINE C] | – | 100 | 17 | –
3 | 8.38 10^2/M/s | 1.51 10^-2/s | 18000 | CO[C@H]1CC[C@@H](C)[C@@H](O)[C@H](C)[C@H](O)C/C=C/C=C/C(=O)O[C@H]([C@@H](C)[C@@H](O)[C@@H](C)CC[C@@H](OC(=O)C(C)N(C)C)[C@H](C)[C@H](OC(C)=O)[C@H](C)C/C=N/NC(=O)CCOCCOCCOCCOCCNC(=O)CCCC[C@@H]2SC[C@@H]3NC(=O)N[C@@H]32)C/C=C/[C@H](OC)C[C@H](C)C/C=C/1C (some centres not stated) | – | – | 700 | –
4 | 4.54 10^3/M/s | 1.83 10^-2/s | 4020 | COCC(C(=O)O[C@@H]1C/C=C/C=C/C(=O)O[C@H]([C@@H](C)[C@@H](O)[C@@H](C)CC[C@@H](OC(=O)C(C)N(C)C)[C@H](C)[C@H](OC(C)=O)[C@H](C)C/C=N/NC(=O)CCOCCOCCOCCOCCNC(=O)CCCC[C@@H]2SC[C@@H]3NC(=O)N[C@@H]32)C/C=C/[C@H](OC)C[C@H](C)C/C=C(\C)[C@@H](OC)CC[C@@H](C)[C@@H](O)[C@@H]1C)N(C)C (some centres not stated) | – | – | 0.096 | –
5 | – | – | – | COCC(C(=O)O[C@@H]1C/C=C/C=C/C(=O)O[C@H]([C@@H](C)[C@@H](O)[C@@H](C)CC[C@@H](OC(=O)C(C)N(C)C)[C@H](C)[C@H](OC(C)=O)[C@H](C)/C=C/N(C)C=O)C/C=C/[C@H](OC)C[C@H](C)C/C=C(\C)[C@@H](OC)CC[C@@H](C)[C@@H](O)[C@@H]1C)N(C)C (some centres not stated) [APLYRONINE A] | 100 | 100 | 0.01 | Activity (Homo sapiens [6]): inactive; Activity (Homo sapiens [7]): Active; TIME (Homo sapiens [8]): 0.265 h; Activity (Homo sapiens [9]): 145 kDa; Ka (Homo sapiens [10]): 4.78 10^4/M/s; Kd [11]: 8.82 10^-2/s; Kd [12]: 1840 nM; Ka (Homo sapiens [13]): 3 10^6/M; Activity (Homo sapiens [14]): inactive; Activity (Homo sapiens [15]): inactive
6 | – | – | – | C/C1=C/C(=O)O[C@@H]2C[C@@H](CC[C@H](C)/C=C\C=C\CC1)O[C@@](O)([C@@H]1CSC(=O)N1)C2 | – | – | – | Activity (Homo sapiens [16]): Active; Activity (Homo sapiens [17]): Active

Source: ChEMBL document CHEMBL4715717, “Analysis of the aplyronine A-induced protein-protein interaction between actin and tubulin by surface plasmon resonance” (Bioorg Med Chem, 2016)
